# Earlier results, collected in paper PMC8513935.
# Assay: experimental, compiled by the authors from the literature (the ESI cites the sources)
# Details: 1,2-Dichloroethane, 25 C
row,"log K of transfer, gas to solvent",SMILES
1,2.96 log10 K,CCCN
2,5.25 log10 K,Oc1ccc(F)cc1

# Same assay, conditions: 2-Methylpropan-1-ol, 25 C
row,SMILES,"log K of transfer, gas to solvent"
1,N,1.86 log10 K

# Same assay, conditions: Benzene, 25 C
row,"log K of transfer, gas to solvent",SMILES
1,2.7 log10 K,CCCN

# Same assay, conditions: Butan-1-ol, 25 C
row,SMILES,"log K of transfer, gas to solvent"
1,N,1.76 log10 K

# Same assay, conditions: Butanone, 25 C
row,SMILES,"log K of transfer, gas to solvent"
1,CN(C)C=O,4.7 log10 K
2,N,1.42 log10 K

# Same assay, conditions: CCl4, 25 C
row,"log K of transfer, gas to solvent",SMILES
1,2.63 log10 K,CCCN
2,4.28 log10 K,Oc1ccc(F)cc1

row,SMILES,"log K of transfer, gas to solvent"
1,N,0.79 log10 K

# Same assay, conditions: Chlorobenzene, 25 C
row,SMILES,"log K of transfer, gas to solvent"
1,N,0.999 log10 K
2,CCCN,2.63 log10 K

# Same assay, conditions: Chloroform, 25 C
row,"log K of transfer, gas to solvent",SMILES
1,6.98 log10 K,c1ccc2ncccc2c1
2,3.47 log10 K,CCCN

row,SMILES,"log K of transfer, gas to solvent"
1,N,1.77 log10 K

# Same assay, conditions: Cyclohexane, 25 C
row,"log K of transfer, gas to solvent",SMILES
1,2.24 log10 K,CCCN

# Same assay, conditions: Decan-1-ol, 25 C
row,"log K of transfer, gas to solvent",SMILES
1,8.88 log10 K,CCCCCCCCCCCCCCO
2,7.53 log10 K,CCCCCCCCCCCO

# Same assay, conditions: Di-n-butyl ether, 25 C
row,"log K of transfer, gas to solvent",SMILES
1,2.14 log10 K,CCCN
2,9.07 log10 K,CCCCCCCCCCCCCCCO

# Same assay, conditions: Ethanol, 25 C
row,SMILES,"log K of transfer, gas to solvent"
1,N,2.01 log10 K

# Same assay, conditions: Hexadecane, 25 C
row,"log K of transfer, gas to solvent",SMILES
1,4.05 log10 K,CC1CCCCC1=O (stereo not shown)
2,4.8 log10 K,CCCCC1CCCCC1
3,5.45 log10 K,c1ccc2ncccc2c1
4,3.17 log10 K,CN(C)C=O
5,3.23 log10 K,CC1CCNCC1
6,1.82 log10 K,CC(C)(C)C
7,4.21 log10 K,CCCCCCCCl
8,5.72 log10 K,CCCCCCc1ccccc1
9,2.79 log10 K,CCCC(C)(C)C
10,2.86 log10 K,CNC=O
11,10.2 log10 K,CCCCCCCCCCCCCCCCCCCO
12,3.14 log10 K,CCCCCN
13,4.04 log10 K,Cc1cccnc1C
14,3.97 log10 K,CN1CCCCC1=O
15,4.31 log10 K,Cc1ccncc1C
16,4.53 log10 K,C=CCCCCCCCC

row,"log K of transfer, gas to solvent",SMILES
1,4.35 log10 K,CCCCNCCCC
2,4.6 log10 K,CC(C)(C)C1CCCCC1
3,1.15 log10 K,CC(C)F
4,4.6 log10 K,CCCCCCCCN
5,2.04 log10 K,CSC
6,4.45 log10 K,CCCCCCCC(C)C
7,2.14 log10 K,CCCN
8,4.4 log10 K,OC1CCCCCC1
9,3.27 log10 K,CCCC(=O)CC
10,9.16 log10 K,CCCCCCCCCCCCCCCCCO
11,4.33 log10 K,C1CCCCCCC1
12,3.84 log10 K,Oc1ccc(F)cc1
13,7.63 log10 K,CCCCCCCCCCCCCCO
14,6.12 log10 K,CCCCCCCCCCCO
15,8.14 log10 K,CCCCCCCCCCCCCCCO

row,SMILES,"log K of transfer, gas to solvent"
1,CCF,0.751 log10 K
2,NC1CCCCC1,3.79 log10 K
3,C[C@@H]1CCCC[C@@H]1C,3.85 log10 K
4,N,0.319 log10 K

# Same assay, conditions: Hexan-1-ol, 25 C
row,"log K of transfer, gas to solvent",SMILES
1,8.94 log10 K,CCCCCCCCCCCCCCO

# Same assay, conditions: Hexane, 25 C
row,"log K of transfer, gas to solvent",SMILES
1,2.03 log10 K,CC(C)(C)C
2,2.17 log10 K,CSC
3,2.26 log10 K,CCCN

# Same assay, conditions: Methanol, 25 C
row,"log K of transfer, gas to solvent",SMILES
1,1.4 log10 K,CC(C)(C)C
2,5.23 log10 K,CCCCCCc1ccccc1

row,SMILES,"log K of transfer, gas to solvent"
1,N,2.26 log10 K

# Same assay, conditions: Octan-1-ol, 25 C
row,"log K of transfer, gas to solvent",SMILES
1,4.38 log10 K,CN(C)C=O

# Same assay, conditions: Propan-1-ol, 25 C
row,SMILES,"log K of transfer, gas to solvent"
1,N,1.76 log10 K

# Same assay, conditions: Propan-2-ol, 25 C
row,SMILES,"log K of transfer, gas to solvent"
1,N,1.74 log10 K
2,CCCCCCCCCCCCCCO,9.05 log10 K

# Same assay, conditions: Propanone, 25 C
row,"log K of transfer, gas to solvent",SMILES
1,4.71 log10 K,CN(C)C=O
2,5.39 log10 K,CNC=O

row,SMILES,"log K of transfer, gas to solvent"
1,N,1.48 log10 K

# Same assay, conditions: Tetrahydrofuran, 25 C
row,SMILES,"log K of transfer, gas to solvent"
1,CCF,1.31 log10 K
2,CN(C)C=O,4.39 log10 K

# Same assay, conditions: Toluene, 25 C
row,"log K of transfer, gas to solvent",SMILES
1,2.57 log10 K,CCCN

# Same assay, conditions: Water, 25 C
row,"log K of transfer, gas to solvent",SMILES
1,3.07 log10 K,CC1CCCCC1=O (stereo not shown)
2,-1.44 log10 K,CCCCC1CCCCC1
3,4.2 log10 K,c1ccc2ncccc2c1
4,5.73 log10 K,CN(C)C=O
5,3.15 log10 K,CC1CCNCC1
6,-1.84 log10 K,CC(C)(C)C
7,-0.21 log10 K,CCCCCCCCl
8,0.03 log10 K,CCCCCCc1ccccc1
9,-2.11 log10 K,CCCC(C)(C)C
10,6.57 log10 K,CNC=O
11,1.66 log10 K,CCCCCCCCCCCCCCCCCCCO
12,3 log10 K,CCCCCN
13,3.54 log10 K,Cc1cccnc1C
14,4.91 log10 K,CN1CCCCC1=O
15,3.83 log10 K,Cc1ccncc1C
16,-1.64 log10 K,C=CCCCCCCCC

row,"log K of transfer, gas to solvent",SMILES
1,2.38 log10 K,CCCCNCCCC
2,-1.28 log10 K,CC(C)(C)C1CCCCC1
3,-0.364 log10 K,CC(C)F
4,2.68 log10 K,CCCCCCCCN
5,1.18 log10 K,CSC
6,-2.27 log10 K,CCCCCCCC(C)C
7,3.22 log10 K,CCCN
8,4.02 log10 K,OC1CCCCCC1
9,2.41 log10 K,CCCC(=O)CC
10,1.9 log10 K,CCCCCCCCCCCCCCCCCO
11,-0.63 log10 K,C1CCCCCCC1
12,4.54 log10 K,Oc1ccc(F)cc1
13,2.26 log10 K,CCCCCCCCCCCCCCO
14,2.5 log10 K,CCCCCCCCCCCO
15,2.14 log10 K,CCCCCCCCCCCCCCCO

row,SMILES,"log K of transfer, gas to solvent"
1,CCF,-0.3 log10 K
2,NC1CCCCC1,3.37 log10 K
3,C[C@@H]1CCCC[C@@H]1C,-1.17 log10 K
4,N,3.19 log10 K

# Assay: derived by the authors as gas->solvent minus gas->water (a hypothetical dry solvent; the ESI), not a two-phase measurement
# Details: Acetone, 25 C
row,"log K of transfer, water to solvent",SMILES
1,-1.02 log10 K,CN(C)C=O

# Same assay, conditions: Butanone, 25 C
row,"log K of transfer, water to solvent",SMILES
1,-1.03 log10 K,CN(C)C=O

# Same assay, conditions: Chloroform, 25 C
row,"log K of transfer, water to solvent",SMILES
1,2.78 log10 K,c1ccc2ncccc2c1

# Same assay, conditions: Hexadecane, 25 C
row,"log K of transfer, water to solvent",SMILES
1,1.26 log10 K,c1ccc2ncccc2c1
2,-2.56 log10 K,CN(C)C=O
3,3.66 log10 K,CC(C)(C)C
4,4.42 log10 K,CCCCCCCCl
5,5.69 log10 K,CCCCCCc1ccccc1
6,0.139 log10 K,CCCCCN
7,1.97 log10 K,CCCCNCCCC

row,SMILES,"log K of transfer, water to solvent"
1,NC1CCCCC1,0.426 log10 K

# Same assay, conditions: Hexane, 25 C
row,"log K of transfer, water to solvent",SMILES
1,3.87 log10 K,CC(C)(C)C

# Same assay, conditions: Methanol, 25 C
row,"log K of transfer, water to solvent",SMILES
1,3.24 log10 K,CC(C)(C)C
2,5.2 log10 K,CCCCCCc1ccccc1

# Same assay, conditions: Octan-1-ol(dry), 25 C
row,"log K of transfer, water to solvent",SMILES
1,-1.35 log10 K,CN(C)C=O

# Same assay, conditions: Tetrahydrofuran, 25 C
row,"log K of transfer, water to solvent",SMILES
1,-1.34 log10 K,CN(C)C=O
